The source of these data is patent US7879843B2, “Benzothiazin-3-one compound and intermediate therefor” (Dainippon Sumitomo Pharma Co., Ltd., priority 2004, dated 2011).

Counter-ions that a name gives are not always drawn.

One data set has as its target T1, human MMP-13 (Homo sapiens, UniProt P45452).
T1 construct: made in house; host or cells: COS-1 cells (pcDNA I vector), culture supernatant
Nature of the data set: Inhibitory activity against MMP-13 (fluorogenic MCA substrate). Type of data set: biochemical. The settings on record: activated human MMP-13, 37° C. for 12 hours. From the text:
As MMP-13, there was used one which had been prepared by genetic engineering (using a well-known human chondrocyte cDNA library as a template, cDNA fragments were amplified by PCR by the use of primers 5′-[…]-3′ (SEQ ID NO: 1) and 5′-[…]-3′ (SEQ ID NO: 2) and each of the cDNA fragments amplified was inserted in a vector pcDNA I, and the vector was introduced into COS-1 cells derived from Afurikamidorizaru kidney, followed by culture and the recovery of the supernatant of a culture medium) on the basis of the well-known genetic base sequence of human MMP-13 (J. Biol. Chem., 269 (24), 16766-16773 (1994)) and had been activated by maintaining the thus prepared MMP-13 at 37° C. for 2 hours in the presence of 1 mM mercury 4-aminophenylacetate.
Inhibitory activity against human MMP-13 was measured according to the method of C. G. Knight et al. (FEBS Lett., 296 (3), 263-266 (1992)).
That is, 45 μl of assay buffer (0.1M Tris-hydrochloric acid, 0.1M sodium chloride, 0.01M calcium chloride, 0.05% Brigy 35, pH=7.5) was placed in a 96-well micro-titer plate for fluorometry, and 5 μl of a solution of a test compound in dimethyl sulfoxide was added thereto. […] After the micro-titer plate was maintained at 37° C. for 12 hours to carry out the reaction, fluorescence was measured with the fluorescence plate reader to measure the residual enzyme activity.

Data set [1] relates to rat partial-meniscectomy models. Nature of the data set: Pharmacological test on rat partial-meniscectomy models. The settings on record: 50 mg/kg, orally six times per week for 3 weeks, SD (IGS) male rats. The data set is classed as in vivo. The text has this: SD (IGS) male rats aged 6 weeks (purchased from Charles River Japan Inc.) were used. The hair on the knee joint portion of right hind leg of each rat was shaved with a hair clipper under etherisation, and then the skin on the joint side of the lateral collateral ligament was incised along the ligament. Subsequently, the fascia was incised and the lateral collateral ligament was resected in a length of about 3 mm. Thereafter, the medial meniscus was exposed and the matters adhering to the meniscus were removed. The meniscus was picked up with tweezers and a part of the meniscus was cut off along the tweezers with microscissors. The fascia and the skin were sutured. One week after the above treatment, the administration of each test compound was started. The volume of the test compound administered was 10 ml/kg (solvent: 0.5% methyl cellulose) and the test compound was orally administered six times per week for 3 weeks. After the body weight was measured, the shinbone of the right hind leg was collected and fixed in 10% neutral buffered formalin. […] The average of scores for rats in each group was calculated and the degree of chondrodegeneration of a pathosis control group was taken as 100%. The chondrodegeneration inhibition rate of each compound was calculated by the following equation: Inhibition rate=1−(average score value of drug-treated group/score value of control group)×100

For the compound `COc1ccc(CCC[C@@H]2Sc3ccc(C(=O)O)cc3N(CC(=O)NO)C2=O)cc1` [Example 14, (−)-4-[2-(Hydroxyamino)-2-oxoethyl]-2-[3-(4-methoxyphenyl)propyl]-3-oxo-3,4-dihydro-2H-1,4-benzothiazine-6-carboxylic acid], inhibition against human MMP-13 was half-maximal at 0.044 µM (IC50).
As for `CCOC(=O)c1ccc2c(c1)N(CC(=O)NO)C(=O)[C@H](CCCc1ccc(OC)cc1)S2` (as salt: TFA) [Example 7, (−)-Ethyl 4-[2-(hydroxyamino)-2-oxoethyl]-2-[3-(4-methoxyphenyl)propyl]-3-oxo-3,4-dihydro-2H-1,4-benzothiazine-6-carboxylate], the melting point (in general, the temperature of the solid-liquid transition) lay in the range of 143.5 to 144.5 °C.
For `CCOC(=O)c1ccc2c(c1)N(CC(=O)NO)C(=O)[C@H](CCCc1ccc(OC)cc1)S2` [Example 7, (−)-Ethyl 4-[2-(hydroxyamino)-2-oxoethyl]-2-[3-(4-methoxyphenyl)propyl]-3-oxo-3,4-dihydro-2H-1,4-benzothiazine-6-carboxylate], in data set [1], the chondrodegeneration inhibition rate is reported as 52%.
